Source: patent US20160176855A1, “Novel Sterically Hindered Cyclic Amines” (CLARIANT INTERNATIONAL LTD, priority 2013, published 2016)

Assay: Solubility in solvents
Type: physicochemical

For CC1(C)CC(NC(=O)c2ccc(C(=O)NC3CC(C)(C)NC(C)(C)C3)o2)CC(C)(C)N1 [Example 2, N,N′-bis(2,2,6,6-tetramethyl-4-piperidinyl)-2,5-furandicarboxamide], the Solubility (in DMF) was “soluble”, the Solubility (in ethanol) was “soluble” and the Solubility (in hexane) was “insoluble”. For the same molecule, the Solubility (in methanol) was “soluble” and the Solubility (in water) was “insoluble”.
